# Like-named read-outs stand apart in the source and are kept apart here. Marks after values point to notes of the source that are not given here.
# Legend:
# [1] = test system: HT-22 cells
# Procedure: The determination of cell viability was carried out by MTT test. MTT is a water soluble tetrazolium salt of yellow color which readily permeates cells. In living cells, MTT is converted into water insoluble formazan crystals of violet color. At the end of an experiment the growth medium was replaced with an MTT solution (0.5 mg/ml) and incubated for 30 min at 37° C. and 5% CO2. The MTT solution was then removed from the wells and DMSO was added to dissolve the formazan precipitate. Then the optical density was measured using a Multiscan (Thermo) spectrophotometer at a wavelength of 600 nm.
# [2] = test system: rats with ischemic cerebral infarction; conditions: 1 mg/kg i.p. x3
# [3] = test system: rats with hemorrhagic stroke; conditions: 1 mg/kg
# Procedure: The experiments were carried out on male white outbred rats weighing 220-250 g. […] The local cerebral hemorrhage (post-traumatic intracerebral hemorrhage) as a hemorrhagic stroke (HS) model was produced by the method of Makarenko (Makarenko A. N. et al., Zh. V. N. D. 2002, 52(6), 765-768).
# To produce the stroke, rats were anesthetized with chloral hydrate (400 mg/kg i.m.) followed by craniotomy. The cerebral tissue in the region of internal capsule was destroyed followed (in 2-3 min) by the injection of blood (0.02-0.03 ml) taken from under the animal's tongue.
# The rats were monitored for 14 days after surgery. Animal's physical condition and behavioral features were recorded at 1, 3, 7 and 14 days.
# The animals were distributed into 3 groups. Group 1 comprised sham-operated (SO) rats with craniotomy alone, group 2 comprised animals with HS, and group 3 comprised rats with HS treated with GK-2 (1 mg/kg at 3 h after surgery and every 48 hours thereafter for a total of 6 administrations). Group 1 and group 2 animals were treated with physiological saline in an equivalent volume.
# Changes in animals' physical condition and behavior were evaluated by conventional methods. The neurological status was assessed by scoring neurological deficits according to MacGrow's stroke scoring system as modified by I. V. Gannushkina; by the muscle tone and coordination of movements monitoring methods; cognitive function was assessed by the passive avoidance conditioned reflex (PAR); and orientation and exploratory behavior by using the open field test. Also the drug's effect on the survival of rats was monitored.
# [4] = test system: rats with photothrombosis of the prefrontal cortex; conditions: 1 mg/kg i.p.
# Procedure: The test substance was administered intraperitoneally at a dose of 1 mg/kg using the following regimen: at 1 h after surgery, at 24 h after the first administration, at 4 days and 6 days after the first administration.
# A bilateral focal ischemic infarction of the prefrontal cortex of the rat brain (the Fr1 and Fr2 fields according to the atlas of Paxinos and Watson, 1986) was produced by the photoinduced thrombosis method (Watson et al., 1985). Animals were anesthetized with chloral hydrate (300 mg/kg i.p.). The photosensitive dye Bengal red (Sigma Chemical Co.) was injected into the jugular vein (3% solution, 40 mg/kg). The animal's head was clamped in the stereotaxis device, and the periosteum was removed after a longitudinal incision of the skin.
# A light guide (the output light beam diameter 3 mm) was placed at a distance of 1 mm from the skull surface using the following coordinates: 2.00 mm rostral of the bregma and 2.00 mm lateral of the sagittal suture. Cold light illumination (a xenon lamp source, 25 V, 250 W) was carried out for 15 min at either side. […] To assess their functional status, the animals were evaluated for their motor activity (MA) in a RODEO-1 automatic unit with an observation time of 5 min. The MA was analyzed before and at 9 days after the photothrombosis of the prefrontal cortex.
# [5] = test system: rats
# Procedure: The experiments were conducted on white male outbred rats weighing 250-280 g. Haloperidol (1.0 mg/kg i.p.), a D1/D2 dopamine receptor blocker, was used to induce catalepsy. The intensity of catalepsy was assessed by measuring the time during which the animal maintained an assumed posture. The measurements were performed 60 minutes after the haloperidol injection. The test compound was administered intraperitoneally at selected doses (0.01, 0.1, 1.0 and 5.0 mg/kg) 24 hours prior to haloperidol. Control animals were treated with an equivalent volume of distilled water. Statistical data treatment was carried out using the exact Fisher test.
compound,measurement,setting,value
"NCCCC[C@H](NC(=O)[C@H](CCC(=O)O)NC(=O)CCC(=O)O)C(=O)NCCCCCCNC(=O)[C@H](CCCCN)NC(=O)[C@H](CCC(=O)O)NC(=O)CCC(=O)O [GK-2, bis-(N-monosuccinyl-glutamyl-lysine) hexamethylenediamide]",Optical density (MTT),"[1]; 10^−8M, 24 h prior to glutamate, control 0.178 ± 0.010, glutamate 0.145 ± 0.013",0.179 ± 0.007^
same,protective effect against glutamate cytotoxicity,[1]; added 24 hours prior to glutamate,protective effect
same,limb-placing test score,"[2]; day 4 post-ischemia, ischemic rats 3.00±0.38, intact 14",5.90±0.62
same,limb-placing test score,"[2]; day 7 post-ischemia, ischemic rats 4.46±0.40, intact 14",7.67±0.75
same,"Number of rats lost within 14 days after HS, total loss, %","[3]; sham 0, stroke 40",0%
same,"Number of rats lost within 14 days after HS, total loss, abs.","[3]; sham 0/10, stroke 4/10",0/10^#
same,Latency to entering the dark compartment (burrowing reflex),"[3]; sham 13.3 ± 2.10, stroke 40.2 ± 13.2",27.9 ± 10.4 s
same,"Number of rats lost, %","[3]; Day 1, sham 0, stroke 20",0%
same,"Number of rats lost, abs.","[3]; Day 1, sham 0/10, stroke 2/10",0/10
same,Number of crossings into open arms,"[3]; Day 1, sham 0.9, stroke 0",1.6 ± 0.4
same,Number of crossings into the middle,"[3]; Day 1, sham 1.9, stroke 0.25",1.5 ± 0.4
same,Number of crossings into closed arms,"[3]; Day 1, sham 2.4, stroke 1.1",1.9 ± 0.4
same,Latency to entering an arm,"[3]; Day 1, sham 6.1, stroke 62.8",4.9 ± 1.05 s
same,Length of time spent in open arms,"[3]; Day 1, sham 11.6, stroke 0",51.3 ± 27.9 s
same,Length of time spent in the middle,"[3]; Day 1, sham 46.8, stroke 95.3",27.5 ± 7.4 s
same,PAR retention: Number of rats entering the dark compartment,"[3]; Day 1, sham 60, stroke 100",60%
same,PAR retention: Latency to entering the dark compartment,"[3]; Day 1, sham 95.0, stroke 24.5",85.5 ± 25.9 s
same,Length of time spent in closed arms,"[3]; Day 1, sham 241.6, stroke 204.8",221.2 ± 28.5 s
same,"Number of rats lost, %","[3]; Day 3, sham 0, stroke 0",0%
same,"Number of rats lost, abs.","[3]; Day 3, sham 0/10, stroke 0/8",0/10
same,Number of crossings into open arms,"[3]; Day 3, sham 0.6, stroke 0.12",0.8 ± 0.2
same,Number of crossings into the middle,"[3]; Day 3, sham 0.6, stroke 0.12",0.5 ± 0.2
same,Number of crossings into closed arms,"[3]; Day 3, sham 1.4, stroke 0.5",1.2 ± 0.1
same,Latency to entering an arm,"[3]; Day 3, sham 5.1, stroke 164.4",7.1 ± 1.9 s
same,Length of time spent in open arms,"[3]; Day 3, sham 6.2, stroke 1.3",10.3 ± 4.4 s
same,Length of time spent in the middle,"[3]; Day 3, sham 18.6, stroke 165.0",15.1 ± 4.9 s
same,PAR retention: Number of rats entering the dark compartment,"[3]; Day 3, sham 70, stroke 100",60%
same,PAR retention: Latency to entering the dark compartment,"[3]; Day 3, sham 74.0, stroke 18.3",88.0 ± 25.8 s
same,Length of time spent in closed arms,"[3]; Day 3, sham 275.2, stroke 133.7",274.6 ± 5.7 s
same,"Number of rats lost, %","[3]; Day 7, sham 0, stroke 12.5",0%
same,"Number of rats lost, abs.","[3]; Day 7, sham 0/10, stroke 1/8",0/10
same,Number of crossings into the middle,"[3]; Day 7, sham 0.7, stroke 0",0.8 ± 0.4
same,Number of crossings into open arms,"[3]; Day 7, sham 1.4, stroke 0.4",1.1 ± 0.2
same,Number of crossings into closed arms,"[3]; Day 7, sham 1.4, stroke 1.0",1.5 ± 0.2
same,Latency to entering an arm,"[3]; Day 7, sham 3.0, stroke 67.4",2.5 ± 0.3 s
same,Length of time spent in the middle,"[3]; Day 7, sham 8.3, stroke 67.4",8.0 ± 2.2 s
same,Length of time spent in open arms,"[3]; Day 7, sham 13.3, stroke 8.6",9.2 ± 1.9 s
same,PAR retention: Number of rats entering the dark compartment,"[3]; Day 7, sham 50, stroke 100",80%
same,PAR retention: Latency to entering the dark compartment,"[3]; Day 7, sham 97.2, stroke 17.6",45.5 ± 22.5 s
same,Length of time spent in closed arms,"[3]; Day 7, sham 278.4, stroke 238.3",283.0 ± 2.9 s
same,"Number of rats lost, %","[3]; Day 14, sham 0, stroke 14.3",0%
same,"Number of rats lost, abs.","[3]; Day 14, sham 0/10, stroke 1/7",0/10
same,Number of crossings into the middle,"[3]; Day 14, sham 0.7, stroke 0.2",1.4 ± 0.3
same,Number of crossings into open arms,"[3]; Day 14, sham 1.1, stroke 0.2",1.1 ± 0.3
same,Number of crossings into closed arms,"[3]; Day 14, sham 1.3, stroke 0.8",1.6 ± 0.4
same,Latency to entering an arm,"[3]; Day 14, sham 3.1, stroke 54.3",2.6 ± 0.4 s
same,Length of time spent in the middle,"[3]; Day 14, sham 18.1, stroke 57.7",16.4 ± 8.5 s
same,Length of time spent in open arms,"[3]; Day 14, sham 29.7, stroke 0.8",8.8 ± 2.3 s
same,PAR retention: Number of rats entering the dark compartment,"[3]; Day 14, sham 60, stroke 100",90%
same,PAR retention: Latency to entering the dark compartment,"[3]; Day 14, sham 93.5, stroke 8.0",45.0 ± 16.4 s
same,Length of time spent in closed arms,"[3]; Day 14, sham 252.2, stroke 241.5",274.8 ± 9.9 s
same,"lesion volume (left and right hemispheres, per rat, mean)",[4]; FIG. 2.4,reduced
same,protection effectiveness rate (PER),[4]; PER=(V0−Vs)/V0×100%,61%
same,Intensity of catalepsy (% of control),"[5]; 0.01 mg/kg i.p. 24 h prior to haloperidol 1.0 mg/kg i.p., measured 60 min after haloperidol",14* % of control
same,Intensity of catalepsy (% of control),[5]; 0.1 mg/kg i.p. 24 h prior to haloperidol,98 % of control
same,Intensity of catalepsy (% of control),[5]; 1.0 mg/kg i.p. 24 h prior to haloperidol,25* % of control
same,Intensity of catalepsy (% of control),[5]; 5.0 mg/kg i.p. 24 h prior to haloperidol,13* % of control
